Results from patent publication US20170190671A1, “BIS(ARYL)CATECHOL DERIVATIVES AS HERBICIDES” (E I DU PONT DE NEMOURS AND COMPANY, priority 2014, published 2017).

How the values were obtained:
Assay in all cases: Test E preemergence
Type in all cases: in vivo
Details in all cases: scale 0 to 100
[1] = test system: arrowleaf sida (Sida rhombifolia)
In short: (§1)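 Preemergence: seeds in silt loam treated with compound in non-phytotoxic solvent with surfactant. Postemergence: plants at 1- to 4-leaf stage (2–18 cm) in peat-based medium sprayed likewise. Greenhouse 14–21 days, then visual rating vs controls, 0 (no effect) to 100 (complete control).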

[2] = test system: goosegrass (Eleusine indica)
In short: as §1

[3] = test system: Italian ryegrass (Lolium multiflorum)
In short: as §1

[4] = test system: velvetleaf (Abutilon theophrasti)
In short: as §1

[5] = test system: sandbur (southern sandbur, Cenchrus echinatus)
In short: as §1

[6] = test system: nightshade (eastern black nightshade, Solanum ptycanthum)
In short: as §1

[7] = test system: green foxtail (Setaria viridis)
In short: as §1

corn (Zea mays) = test system: corn (Zea mays)
In short: as §1

[8] = test system: Brazilian crabgrass (Digitaria horizontalis)
In short: as §1

[9] = test system: field bindweed (Convolvulus arvensis)
In short: as §1

[10] = test system: Surinam grass (Brachiaria decumbens)
In short: as §1

soybean (Glycine max) = test system: soybean (Glycine max)
In short: as §1

[11] = test system: dayflower (Virginia (VA) dayflower, Commelina virginica)
In short: as §1

kochia (Kochia scoparia) = test system: kochia (Kochia scoparia)
In short: as §1

[12] = test system: large (Lg) crabgrass (Digitaria sanguinalis)
In short: as §1

[13] = test system: barnyardgrass (Echinochloa crus-galli)
In short: as §1

[14] = test system: waterhemp (common waterhemp, Amaranthus rudis)
In short: as §1

[15] = test system: hairy beggarticks (Bidens pilosa)
In short: as §1

[16] = test system: morningglory (Ipomoea coccinea)
In short: as §1

[17] = test system: ragweed (common ragweed, Ambrosia elatior)
In short: as §1

[18] = test system: palmer pigweed (Amaranthus palmeri)
In short: as §1

Fc1cccc(Oc2ncc(C(F)(F)F)cn2)c1Oc1ncc(Cl)cn1 [Compound 42, 5-chloro-2-[2-fluoro-6-[[5-(trifluoromethyl)-2-pyrimidinyl]oxy]phenoxy]pyrimidine]
Plant response rating, Arrowleaf Sida ([1]; 16 g ai/ha): 100
Plant response rating, Arrowleaf Sida ([1]; 31 g ai/ha): 98
Plant response rating, Arrowleaf Sida ([1]; 62 g ai/ha): 100
Plant response rating, Arrowleaf Sida ([1]; 125 g ai/ha): 100
Plant response rating, Goosegrass ([2]; 16 g ai/ha): 0
Plant response rating, Goosegrass ([2]; 31 g ai/ha): 50
Plant response rating, Goosegrass ([2]; 62 g ai/ha): 90
Plant response rating, Goosegrass ([2]; 125 g ai/ha): 98
Plant response rating, Ryegrass, Italian ([3]; 16 g ai/ha): 20
Plant response rating, Ryegrass, Italian ([3]; 31 g ai/ha): 40
Plant response rating, Ryegrass, Italian ([3]; 62 g ai/ha): 80
Plant response rating, Ryegrass, Italian ([3]; 125 g ai/ha): 98
Plant response rating, Velvetleaf ([4]; 16 g ai/ha): 75
Plant response rating, Velvetleaf ([4]; 31 g ai/ha): 80
Plant response rating, Velvetleaf ([4]; 62 g ai/ha): 100
Plant response rating, Velvetleaf ([4]; 125 g ai/ha): 100
Plant response rating, Sandbur ([5]; 16 g ai/ha): 0
Plant response rating, Sandbur ([5]; 31 g ai/ha): 5
Plant response rating, Sandbur ([5]; 62 g ai/ha): 35
Plant response rating, Sandbur ([5]; 125 g ai/ha): 65
Plant response rating, Nightshade ([6]; 16 g ai/ha): 80
Plant response rating, Nightshade ([6]; 31 g ai/ha): 70
Plant response rating, Nightshade ([6]; 62 g ai/ha): 98
Plant response rating, Nightshade ([6]; 125 g ai/ha): 98
Plant response rating, Foxtail, Green ([7]; 16 g ai/ha): 35
Plant response rating, Foxtail, Green ([7]; 31 g ai/ha): 80
Plant response rating, Foxtail, Green ([7]; 62 g ai/ha): 95
Plant response rating, Foxtail, Green ([7]; 125 g ai/ha): 100
Plant response rating, Corn (corn (Zea mays); 16 g ai/ha): 0
Plant response rating, Corn (corn (Zea mays); 31 g ai/ha): 0
Plant response rating, Corn (corn (Zea mays); 62 g ai/ha): 35
Plant response rating, Corn (corn (Zea mays); 125 g ai/ha): 65
Plant response rating, Crabgrass, Brazil ([8]; 16 g ai/ha): 35
Plant response rating, Crabgrass, Brazil ([8]; 31 g ai/ha): 95
Plant response rating, Crabgrass, Brazil ([8]; 62 g ai/ha): 100
Plant response rating, Crabgrass, Brazil ([8]; 125 g ai/ha): 100
Plant response rating, Field Bindweed ([9]; 16 g ai/ha): 25
Plant response rating, Field Bindweed ([9]; 31 g ai/ha): 20
Plant response rating, Field Bindweed ([9]; 62 g ai/ha): 40
Plant response rating, Field Bindweed ([9]; 125 g ai/ha): 85
Plant response rating, Surinam Grass ([10]; 16 g ai/ha): 0
Plant response rating, Surinam Grass ([10]; 31 g ai/ha): 0
Plant response rating, Surinam Grass ([10]; 62 g ai/ha): 40
Plant response rating, Surinam Grass ([10]; 125 g ai/ha): 85
Plant response rating, Soybean (soybean (Glycine max); 16 g ai/ha): 0
Plant response rating, Soybean (soybean (Glycine max); 31 g ai/ha): 35
Plant response rating, Soybean (soybean (Glycine max); 62 g ai/ha): 35
Plant response rating, Soybean (soybean (Glycine max); 125 g ai/ha): 100
Plant response rating, Dayflower, VA ([11]; 16 g ai/ha): 0
Plant response rating, Dayflower, VA ([11]; 31 g ai/ha): 20
Plant response rating, Dayflower, VA ([11]; 62 g ai/ha): 90
Plant response rating, Dayflower, VA ([11]; 125 g ai/ha): 95
Plant response rating, Kochia (kochia (Kochia scoparia); 16 g ai/ha): 80
Plant response rating, Kochia (kochia (Kochia scoparia); 31 g ai/ha): 90
Plant response rating, Kochia (kochia (Kochia scoparia); 62 g ai/ha): 100
Plant response rating, Kochia (kochia (Kochia scoparia); 125 g ai/ha): 100
Plant response rating, Crabgrass, Large ([12]; 16 g ai/ha): 80
Plant response rating, Crabgrass, Large ([12]; 31 g ai/ha): 98
Plant response rating, Crabgrass, Large ([12]; 62 g ai/ha): 100
Plant response rating, Crabgrass, Large ([12]; 125 g ai/ha): 100
Plant response rating, Barnyardgrass ([13]; 16 g ai/ha): 5
Plant response rating, Barnyardgrass ([13]; 31 g ai/ha): 50
Plant response rating, Barnyardgrass ([13]; 62 g ai/ha): 70
Plant response rating, Barnyardgrass ([13]; 125 g ai/ha): 100
Plant response rating, Waterhemp ([14]; 16 g ai/ha): 98
Plant response rating, Waterhemp ([14]; 31 g ai/ha): 100
Plant response rating, Waterhemp ([14]; 62 g ai/ha): 100
Plant response rating, Waterhemp ([14]; 125 g ai/ha): 100
Plant response rating, Beggarticks ([15]; 16 g ai/ha): 0
Plant response rating, Beggarticks ([15]; 31 g ai/ha): 0
Plant response rating, Beggarticks ([15]; 62 g ai/ha): 0
Plant response rating, Beggarticks ([15]; 125 g ai/ha): 0
Plant response rating, Morningglory ([16]; 16 g ai/ha): 0
Plant response rating, Morningglory ([16]; 31 g ai/ha): 35
Plant response rating, Morningglory ([16]; 62 g ai/ha): 70
Plant response rating, Morningglory ([16]; 125 g ai/ha): 95
Plant response rating, Ragweed ([17]; 16 g ai/ha): 0
Plant response rating, Ragweed ([17]; 31 g ai/ha): 20
Plant response rating, Ragweed ([17]; 62 g ai/ha): 65
Plant response rating, Ragweed ([17]; 125 g ai/ha): 100
Plant response rating, Pigweed, Palmer ([18]; 16 g ai/ha): 60
Plant response rating, Pigweed, Palmer ([18]; 31 g ai/ha): 70
Plant response rating, Pigweed, Palmer ([18]; 62 g ai/ha): 80
Plant response rating, Pigweed, Palmer ([18]; 125 g ai/ha): 100

Fc1cccc(Oc2ncc(Cl)cn2)c1Oc1ncc(C(F)(F)F)cn1 [Compound 43, 5-chloro-2-[5-fluoro-6-[[5-(trifluoromethyl)-2-pyrimidinyl]oxy]phenoxy]pyrimidine]
Plant response rating, Arrowleaf Sida ([1]; 31 g ai/ha): 100
Plant response rating, Arrowleaf Sida ([1]; 125 g ai/ha): 100
Plant response rating, Goosegrass ([2]; 31 g ai/ha): 50
Plant response rating, Goosegrass ([2]; 125 g ai/ha): 100
Plant response rating, Ryegrass, Italian ([3]; 31 g ai/ha): 40
Plant response rating, Ryegrass, Italian ([3]; 125 g ai/ha): 98
Plant response rating, Velvetleaf ([4]; 31 g ai/ha): 70
Plant response rating, Velvetleaf ([4]; 125 g ai/ha): 100
Plant response rating, Sandbur ([5]; 31 g ai/ha): 15
Plant response rating, Sandbur ([5]; 125 g ai/ha): 100
Plant response rating, Nightshade ([6]; 31 g ai/ha): 98
Plant response rating, Nightshade ([6]; 125 g ai/ha): 100
Plant response rating, Foxtail, Green ([7]; 31 g ai/ha): 70
Plant response rating, Foxtail, Green ([7]; 125 g ai/ha): 100
Plant response rating, Corn (corn (Zea mays); 31 g ai/ha): 0
Plant response rating, Corn (corn (Zea mays); 125 g ai/ha): 50
Plant response rating, Crabgrass, Brazil ([8]; 31 g ai/ha): 95
Plant response rating, Crabgrass, Brazil ([8]; 125 g ai/ha): 100
Plant response rating, Field Bindweed ([9]; 31 g ai/ha): 20
Plant response rating, Field Bindweed ([9]; 125 g ai/ha): 50
Plant response rating, Surinam Grass ([10]; 31 g ai/ha): 25
Plant response rating, Surinam Grass ([10]; 125 g ai/ha): 80
Plant response rating, Soybean (soybean (Glycine max); 31 g ai/ha): 30
Plant response rating, Soybean (soybean (Glycine max); 125 g ai/ha): 65
Plant response rating, Dayflower, VA ([11]; 31 g ai/ha): 25
Plant response rating, Dayflower, VA ([11]; 125 g ai/ha): 95
Plant response rating, Kochia (kochia (Kochia scoparia); 31 g ai/ha): 98
Plant response rating, Kochia (kochia (Kochia scoparia); 125 g ai/ha): 100
Plant response rating, Crabgrass, Large ([12]; 31 g ai/ha): 98
Plant response rating, Crabgrass, Large ([12]; 125 g ai/ha): 100
Plant response rating, Barnyardgrass ([13]; 31 g ai/ha): 20
Plant response rating, Barnyardgrass ([13]; 125 g ai/ha): 100
Plant response rating, Waterhemp ([14]; 31 g ai/ha): 90
Plant response rating, Waterhemp ([14]; 125 g ai/ha): 100
Plant response rating, Beggarticks ([15]; 31 g ai/ha): 0
Plant response rating, Beggarticks ([15]; 125 g ai/ha): 0
Plant response rating, Morningglory ([16]; 31 g ai/ha): 5
Plant response rating, Morningglory ([16]; 125 g ai/ha): 95
Plant response rating, Ragweed ([17]; 31 g ai/ha): 60
Plant response rating, Ragweed ([17]; 125 g ai/ha): 85
Plant response rating, Pigweed, Palmer ([18]; 31 g ai/ha): 75
Plant response rating, Pigweed, Palmer ([18]; 125 g ai/ha): 90
